In patent publication US4350691A, “Certain azabicyclocarboxamides and compositions containing same” (Beecham Group Limited, priority 1979, dated 1982):

Experiments:
Format in all cases: in vivo
gastric motility = experiment: Gastric Motility Testing in the Rat (reversal of the inhibition effect of 6,7-ADTN); conditions: conscious chronic gastric fistula rat; for reversal of the reduction of basal gastric motor activity by 6,7-ADTN: 10 minutes after 6,7-ADTN 1 mg/kg s.c.
Protocol: The compounds were tested for ability to reverse the inhibition effect of 6,7-ADTN on gastric motility recorded by an open tipped catheter in the conscious chronic gastric fistula rat. […] For subcutaneous testing the compounds were dissolved in water by the addition of tartaric acid (1/2 mole per mole of compound).

dopamine receptor = experiment: Inhibition of Apomorphine Induced Climbing in the Mouse; conditions: for Activity % Inhibition: apomorphine induced climbing, apomorphine 1 mg/kg s.c., orally 30 min prior
Protocol: The compound prepared in Example 3 was tested for inhibition of apomorphine induced climbing behaviour in the mouse. This is indicative of dopamine receptor blockade in the central nervous system.
The test is based on that described by Protais, P., Constantin, J. and Schwartz, J. C. (1976), Psychopharmacology, 50, 1-6.
Apomorphine 1 mg/kg s.c. induces mice to climb the wall of a wire cage (inverted food hopper--11×7.5×18 cm high). Mice acclimatised in their home cages in groups of 5 are placed under the hoppers immediately after the injection of apomorphine 1 mg/kg s.c. At 10,20 and 30 minutes after injection climbing behaviour is scored. The mice are observed for 30 seconds and scored according to the position they spend the majority of time in, score 0--four paws on floor of cage; score 1--fore paws only on walls; score 2--all paws on wall of cage. The scores at all 3 times and for each mouse are summed and mice drug treated orally 30 min. prior to apomorphine compared to mice receiving apomorphine only. A saline only treated group is also included and any score, generally 5% of maximum taken into account.

vomiting response = experiment: Anti-emetic Activity in the Dog (apomorphine HCl vomiting response); conditions: Canis lupus familiaris, 0.5 h; s.c., 30 minutes prior to apomorphine HCl 0.1 mg/kg subcutaneously; read-out: dose that totally inhibited the vomiting response
Protocol: Compounds were administered subcutaneously 30 minutes, or per os 2 hr, prior to administration of a standard dose of apomorphine HCl (0.1 mg/kg subcutaneously) and the vomiting response compared to that obtained when the same animals were dosed with apomorphine HCl and vehicle only.

NC1CCc2cc(O)c(O)cc2C1 (stereo not drawn) [6,7-ADTN, reference compound]
basal gastric motor activity (gastric motility; 6,7-ADTN 1 mg/kg s.c.): reduced basal gastric motor activity

COc1ccc(NC(=O)[C@@H]2C[C@H]3CC[C@@H](C2)N3Cc2ccccc2)c(OC)c1 [Compound 20, 3-methoxy-4-[8'-benzyl-8'-azabicyclo[3.2.1]octane-3β'-carboxamido]anisole]
Activity % Inhibition (dopamine receptor; compound dose 10 mg/kg): 100%

COc1ccc(OC)c(NC(=O)[C@@H]2C[C@H]3CC[C@@H](C2)N3Cc2ccccc2)c1 [Compound 21, 4-methoxy-2-(8'-benzyl-8'-azabicyclo[3.2.1]octane-3β-carboxamido)anisole]
Activity % Inhibition (dopamine receptor; compound dose 2 mg/kg): 60%

COc1ccc(S(C)(=O)=O)cc1NC(=O)[C@@H]1C[C@H]2CC[C@@H](C1)N2Cc1ccccc1 [Compound 24, 4-methylsulphonyl-2-(8'-benzyl-8'-azabicyclo[3,2,1]octane-3'β-carboxamido)anisole]
ED100 (vomiting response): 0.1 mg/kg | reversal of the reduction of basal gastric motor activity by 6,7-ADTN (gastric motility; compound 1 mg/kg s.c.): reversed

COc1ccc(S(N)(=O)=O)cc1NC(=O)[C@@H]1C[C@H]2CC[C@@H](C1)N2Cc1ccccc1 [Compound 25, 4-aminosulphonyl-2-(8'benzyl-8'-azabicyclo[3.2.1]octane-3'β-carboxamido)anisole]
reversal of the reduction of basal gastric motor activity by 6,7-ADTN (gastric motility; compound 5 mg/kg s.c.): reversed

COc1cc(N)c(Cl)cc1NC(=O)[C@@H]1C[C@H]2CC[C@@H](C1)N2Cc1ccccc1 [Compound 44, 5-Amino-4-chloro-2-[8'-benzyl-8'-azabicyclo-[3.2.1]octane-3'β-carboxamido]-anisole]
Activity % Inhibition (dopamine receptor; compound dose 1 mg/kg): 100% | ED50 (dopamine receptor; inhibition of apomorphine induced climbing, orally 30 min prior to apomorphine 1 mg/kg s.c.): 0.05 mg/kg

COc1cc(N)c(Cl)cc1NC(=O)[C@@H]1C[C@H]2CC[C@@H](C1)N2Cc1ccc(Cl)c(Cl)c1 [Compound 45, 5-amino-4-chloro-2-(8'-[3",4"-dichlorobenzyl]-8'-azabicyclo[3.2.1]octane-3β'-carboxamido)anisole]
Activity % Inhibition (dopamine receptor; compound dose 10 mg/kg): 100%

COc1cc(N)c(Cl)cc1NC(=O)[C@@H]1C[C@H]2CC[C@@H](C1)N2Cc1ccc(Cl)cc1 [Compound 46, 5-amino-4-chloro-2-(8'-(4"-chlorobenzyl)-8'-azabicyclo [3.2.1]octane-3'β-carboxamido)anisole]
Activity % Inhibition (dopamine receptor; compound dose 10 mg/kg): 100%

COc1cc(N)c(Cl)cc1NC(=O)[C@@H]1C[C@H]2CC[C@@H](C1)N2Cc1ccc(C)cc1 [Compound 47, 5-amino-4-chloro-2-(8'-[4"-methylbenzyl]-8'-azabicyclo [3.2.1]octane-3'β-carboxamido)anisole]
Activity % Inhibition (dopamine receptor; compound dose 10 mg/kg): 100%

COc1ccc(CN2[C@@H]3CC[C@H]2C[C@H](C(=O)Nc2cc(Cl)c(N)cc2OC)C3)cc1 [Compound 48, 5-amino-4-chloro-2-(8'-[4"-methoxybenzyl]-8'-azabicyclo [3.2.1]octane-3'β-carboxamido)anisole]
Activity % Inhibition (dopamine receptor; compound dose 10 mg/kg): 100%

COc1cc(N)c(Cl)cc1NC(=O)[C@@H]1C[C@H]2CC[C@@H](C1)N2CCC(C)C [Compound 53, 5-amino-4-chloro-2-(8'-3"-methylbutyl-8'-azabicyclo [3.2.1]octane-3'β-carboxamido)anisole]
Activity % Inhibition (dopamine receptor; compound dose 10 mg/kg): 56%

COc1cc(N)c(Cl)cc1NC(=O)[C@@H]1C[C@H]2CC[C@@H](C1)N2CC1CCCCC1 [Compound 55, 5-amino-4-chloro-2-(8'-cyclohexylmethyl-8'-azabicyclo [3.2.1]octane-3'β-carboxamido)anisole]
Activity % Inhibition (dopamine receptor; compound dose 50 mg/kg): 100%

COc1cc(NC(C)=O)c(Cl)cc1NC(=O)[C@@H]1C[C@H]2CC[C@@H](C1)N2Cc1ccccc1 [Compound 62, 5-Acetamido-4-chloro-2-[8-benzyl-8-azabicyclo (3,2,1)acetone-3β-carboxamido]anisole]
Activity % Inhibition (dopamine receptor; compound dose 2 mg/kg): 95%
